Results taken from patent US5753623A, “Method of treatment for depression” (Connetics Corporation, priority 1995, dated 1998).

Columns and labels:
[1] = tested on: female subjects after childbirth; assay: Clinical trial for treatment of postpartum depression (Example 6); format: in vivo, human; conditions: osmotic pump 50 μg/kg/day subcutaneous from three days after childbirth, three months, versus placebo
Procedure: One hundred pregnant female subjects are monitored for relaxin serum concentration during the course of their pregnancy. The subjects are randomized and divided into treatment and control groups. Three days after childbirth, in the treatment group, relaxin is administered by subcutaneous placement of a relaxin-containing osmotic pump delivering 50 μg/kg/day of recombinant human relaxin (H2); in the control group, placebo is administered by subcutaneous placement of a placebo-containing osmotic pump. The subjects are required to maintain a diary documenting their mood (e.g., joy/euphoria/depression/anxiety) over a period of three months following placement of the drug/placebo. The same is documented, along with relaxin serum concentration, by weekly visits to the treating physician.

[2] = tested on: patients; assay: Relaxin treatment regimen with gradually decreased dosage (Example 5); format: in vivo, human; conditions: about 6 μg/kg, then dosage gradually decreased to minimum dose or zero
Procedure: Relaxin is administered in patient-dependent doses (about 6 μg/kg) sufficient to maintain serum concentrations of at least about 1.0 ng/ml (approximating relaxin concentration during pregnancy).

[3] = tested on: Male Lewis mice; assay: Mouse forced swimming wheel model; format: in vivo; conditions: 50 μg/kg/day subcutaneous, two hours before the test, versus placebo control
Procedure: This is a modification of the forced swimming wheel test described by Kasahara, et al., Life Sci., 52(22):1741-1749 (1993).
Male Lewis mice are divided into control and treatment groups. Two hours before the test, the control and treatment groups, respectively, receive subcutaneous injections of placebo or 50 μg/kg/day of recombinant human relaxin (H2) formulated as described in allowed U.S. Ser. No. 08/050,745. The mice are individually placed in the swimming wheel and the number of turns of the wheel is recorded for each. Antidepressant activity is indicated by an increased number of turns in the treatment group.

[4] = tested on: patient with severe systemic scleroderma; assay: Human antidepressant activity, missed doses and readministration (Example 4); format: in vivo
Procedure: A patient diagnosed as having severe systemic scleroderma with systemic sclerosis, was undergoing compassionate use therapy with relaxin. They were being treated with 1.5 mg per day of recombinant human relaxin (H2) in a buffered citrate solution adjusted to pH 5.0, divided into six equal doses by subcutaneous injection to achieve a circulating concentration of about 1.0 ng/ml.

[5] = Serum concentrations of relaxin in the ongoing clinical trials; format: in vivo, human
Procedure: While human dosage levels for treating depression have yet to be optimized for relaxin, generally, a daily dose is from about […] of body weight per day, preferably about […] μg/kg, and most preferably about 12.0 to 100.0 μg/kg. Generally it is sought to obtain a serum concentration of relaxin approximating or greater than normal circulating levels in pregnancy, i.e., 1.0 ng/ml, such as 0.5 to 50 ng/ml, preferably 1.0 to 20 ng/ml. […] Thus, for administration to a 70 kg person, the dosage range would be about 7.0 μg to 3.5 mg per day, preferably about […] to 2.1 mg per day, and most preferably about […] per day. The amount of relaxin administered will, of course, be dependent on the subject and the severity of the affliction, the manner and schedule of administration and the judgment of the prescribing physician. One treatment regimen can employ a higher initial dosage level (e.g., 100 to 200 μg/kg/day) followed by decreasing dosages to achieve steady relaxin serum concentration of about 1.0 ng/ml. Another treatment regimen, particularly for postpartum depression, entails administration of an amount of relaxin sufficient to attain normal pregnancy levels of relaxin (about 1.0 ng/ml) followed by gradual decreasing dosages until relaxin serum levels are no longer detectable (e.g., less than about 20 pg/ml), optionally discontinuing treatment upon reaching that dosage level.

[6] = tested on: patient with severe systemic scleroderma; assay: Human antidepressant activity, dose ranging phase (Example 3); format: in vivo; conditions: 0.5 mg bolus subcutaneous
Procedure: A patient diagnosed as having severe systemic scleroderma with systemic sclerosis, was undergoing compassionate use therapy with relaxin. In a dose ranging phase of the therapy, recombinant human relaxin (H2) in a buffered citrate solution adjusted to Ph 5.0 was administered as a bolus subcutaneous injection of 0.5 mg.

[7] = tested on: scleroderma patients; assay: Monitoring of overall wellbeing in Phase I clinical trials in scleroderma patients; format: in vivo, human
Excerpt: Recombinant human relaxin (H2) in currently in Phase I human clinical trials in scleroderma patients. Scleroderma is a disease involving an imbalance in tissue reformation giving rise to the overproduction of collagen, and ultimately resulting in swelling and hardening of the skin (and affected organs).
Relaxin is currently the subject of Phase I clinical trials involving scleroderma patients. Scleroderma is a disease involving an imbalance in tissue reformation giving rise to the overproduction of collagen, and ultimately resulting in swelling and hardening of the skin (and affected organs). Part of the clinical testing of relaxin in scleroderma patients included the monitoring of overall wellbeing.

[8] = Serum relaxin concentrations after single subcutaneous administration to a scleroderma patient; format: in vivo, human; conditions: 10 μg/kg single subcutaneous injection
Procedure: FIG. 1 is a graph showing serum relaxin concentration (ng/ml) as measured against time after administration of a single subcutaneous dose of 10 μg/kg to a scleroderma patient.
Relaxin (10 μg/kg) was administered as a single subcutaneous injection to a scleroderma patient. Blood samples were obtained at timed intervals and measured for serum relaxin concentration (ng/ml). Peak serum concentration was attained at about 2 hours post dosing.

relaxin
signs of postpartum depression [1]: fewer signs of postpartum depression than the subjects in the control group | depression associated with withdrawal [2]: do not experience depression associated with precipitous withdrawal | number of turns of the swimming wheel [3]: increased number of turns as compared to the control group | mood after several missed doses ([4]; 1.5 mg per day in six subcutaneous doses, doses inadvertently missed): feelings similar to those they had previously experienced in the postpartum period | clearing of the "blues" after readministration ([4]; 1.5 mg per day in six subcutaneous doses, readministration after missed doses): cleared within hours of readministration | episodes of depression during uninterrupted treatment ([4]; following year, patient not withdrawn from treatment): no similar episodes of depression were experienced | serum concentration ([5]; dosage of about 6.0 μg/kg, printed spread ±0.3): about 1.8 ng/ml | serum concentration ([5]; dosage of about 12.0 μg/kg, printed spread ±0.6): ~3.6 ng/mL | serum concentration ([5]; dosage of about 50 μg/kg, printed spread ±1.6): ~11.8 ng/mL | patient-reported mood symptoms ([6]; about seven hours post dosing): significant anxiety/depression-like symptoms | relaxin serum concentration ([6]; about seven hours post dosing, approximated): below 1 ng/ml | patient-reported wellbeing ([6]; about two hours post dosing (approximating peak serum concentration)): significant improvement in wellbeing | effect of discontinuation of therapy on mood ([7]; discontinuation of therapy): malaise described as best comparable to postpartum depression | reversibility of malaise ([7]; resumption of treatment): reversible upon resumption of treatment | mood during treatment ([7]; treatment of scleroderma with relaxin): mood elevations corresponded to peak dosing periods | time to peak serum concentration [8]: about 2 hours
